Measurements published in US20050176759A1, “7-sulfonyl-3-benzazepine derivatives as modulators of the dopamine receptor and their use for the treatment cns disorders” (priority 2001, published 2005).

Molecular target: T1, serotonin 5-HT6 receptor (Homo sapiens, UniProt P50406)
T1 construct: expressed in transfected cells
Experiment: Binding experiments on cloned 5-HT6 receptors (procedures of WO 98/27081)
Text: Binding Experiments on Cloned […] Receptors
Compounds can be tested following the procedures outlined in WO 98/27081.

T1 sequence (P50406 whole entry): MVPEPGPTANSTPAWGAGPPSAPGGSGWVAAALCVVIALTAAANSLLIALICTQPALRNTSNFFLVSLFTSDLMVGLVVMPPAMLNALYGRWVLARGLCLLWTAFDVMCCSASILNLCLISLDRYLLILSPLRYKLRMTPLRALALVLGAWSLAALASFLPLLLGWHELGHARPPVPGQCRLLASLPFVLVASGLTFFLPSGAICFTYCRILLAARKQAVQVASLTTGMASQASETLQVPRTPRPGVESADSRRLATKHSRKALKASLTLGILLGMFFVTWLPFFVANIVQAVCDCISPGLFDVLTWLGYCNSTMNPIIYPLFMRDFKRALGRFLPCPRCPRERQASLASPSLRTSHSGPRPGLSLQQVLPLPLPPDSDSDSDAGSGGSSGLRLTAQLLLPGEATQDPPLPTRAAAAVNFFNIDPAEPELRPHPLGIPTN

Ki: 100 to 1000 pM
SMILES: O=S(=O)(c1ccc2c(c1)CCNCC2)c1c[nH]c2ccccc12 [Example 43, 7-(3-(1H-indolyl)sulfonyl)-2,3,4,5-tetrahydro-1H-3-benzazepine]
